{
  "source": "patent US9062048B2",
  "about": "“Cyclohexyl-azetidinyl antagonists of CCR2” (Janssen Pharmaceutica NV, priority 2010, dated 2015)",
  "biological_target": "CCR2 (Homo sapiens (Human), UniProt P41597)",
  "sequence (P41597 whole entry)": "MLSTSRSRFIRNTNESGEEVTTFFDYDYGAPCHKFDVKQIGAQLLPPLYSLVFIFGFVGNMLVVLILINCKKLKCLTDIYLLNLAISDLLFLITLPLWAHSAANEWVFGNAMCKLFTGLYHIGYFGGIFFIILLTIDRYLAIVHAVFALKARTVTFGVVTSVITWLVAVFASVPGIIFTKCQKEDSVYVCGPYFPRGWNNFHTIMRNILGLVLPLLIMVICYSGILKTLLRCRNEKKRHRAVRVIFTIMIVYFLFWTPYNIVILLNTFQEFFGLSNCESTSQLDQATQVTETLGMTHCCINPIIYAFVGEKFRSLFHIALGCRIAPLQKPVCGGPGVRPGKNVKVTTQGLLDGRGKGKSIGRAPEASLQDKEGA",
  "assay": "MCP-1 Receptor Binding Assay in THP-1 Cells;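 note: THP-1 is a human monocytic cell line, and nonspecific binding was defined with 1 µM unlabeled MCP-1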",
  "conditions": "0.5 nM 125I labeled MCP-1, 2 hours at 30° C., read-out: Inhibition of MCP-1 Binding IC50 MCP1B",
  "data": [
    {"smiles": "NC(=O)c1cc(NCC(=O)NC2CN([C@H]3CC[C@@](O)(c4cncs4)CC3)C2)c2cc(C(F)(F)F)ccc2n1", "note": "[Example 62]", "values": [
      {"measurement": "IC50", "result": 9, "unit": "nM"}
    ]},
    {"smiles": "COc1ccc(CNC(=O)C2CCC(N3CC(NC(=O)CNc4ncnc5ccc(C(F)(F)F)cc45)C3)CC2)c(OC)c1", "note": "(stereo not shown) [Example 129, N-(2,4-dimethoxybenzyl)-4-(3-(2-((6-(trifluoromethyl)quinazolin-4-yl)amino)acetamido)azetidin-1-yl)cyclohexanecarboxamide]", "values": [
      {"measurement": "IC50", "result": 390, "unit": "nM"}
    ]},
    {"smiles": "CN(C)CC(O)[C@H]1CC[C@@H](N2CC(NC(=O)CNc3ncnc4ccc(C(F)(F)F)cc34)C2)CC1", "note": "(stereo partly drawn) [Example 23, N-(1-((1S,4s)-4-(2-(dimethylamino)-1-hydroxyethyl)cyclohexyl)azetidin-3-yl)-2-((6-(trifluoromethyl)quinazolin-4-yl)amino)acetamide]", "values": [
      {"measurement": "IC50", "result": 714, "unit": "nM"}
    ]},
    {"smiles": "CC(=O)N(C)[C@H]1CC[C@@H](N2CC(NC(=O)CNc3ncnc4ccc(C(F)(F)F)cc34)C2)CC1", "note": "[Example 44]", "values": [
      {"measurement": "IC50", "result": 520, "unit": "nM"}
    ]},
    {"smiles": "O=C1C=CCC([C@H]2CC[C@@H](N3CC(NC(=O)CNc4ncnc5ccc(C(F)(F)F)cc45)C3)CC2)N1", "note": "(stereo partly drawn) [Example 11, N-(1-((1S,4s)-4-(6-oxo-1,2,3,6-tetrahydropyridin-2-yl)cyclohexyl)azetidin-3-yl)-2-((6-(trifluoromethyl)quinazolin-4-yl)amino)acetamide]", "values": [
      {"measurement": "IC50", "result": 12, "unit": "nM"}
    ]},
    {"smiles": "CC(C)[C@@H](O)[C@H]1CC[C@@H](N2CC(NC(=O)CNc3nncc4ccc(C(F)(F)F)cc34)C2)CC1", "note": "(racemic) [Example 159, N-(1-((1R,4s)-4-((S)-1-hydroxy-2-methylpropyl)cyclohexyl)azetidin-3-yl)-2-((7-(trifluoromethyl)phthalazin-1-yl)amino)acetamide]", "values": [
      {"measurement": "IC50", "result": 8290, "unit": "nM"}
    ]},
    {"smiles": "CC(C)[C@@H](O)[C@H]1CC[C@@H](N2CC(NC(=O)CNc3nccc4ncc(C(F)(F)F)cc34)C2)CC1", "note": "(stereo in doubt) [Example 155, N-(1-((1R,4s)-4-((S)-1-hydroxy-2-methylpropyl)cyclohexyl)azetidin-3-yl)-2-((3-(trifluoromethyl)-1,6-naphthyridin-5-yl)amino)acetamide]", "values": [
      {"measurement": "IC50", "result": "> 25000", "unit": "nM"}
    ]}
  ]
}
